Our source for the IC50 values is US7557137B2, “Gamma-lactams as beta-secretase inhibitors” (Bristol-Myers Squibb Company, priority 2002, dated 2009).

Bounds are passed on as bounds.

The assay concerns the target T1, BACE enzyme (Homo sapiens, UniProt P56817).
T1 construct: the catalytic domain, appended by a C-terminal poly-histidine tag, is secreted out into the cellular medium; made in house; host or cells: Drosophila melanogaster S2 cells
As to the kind of experiment: BACE enzyme inhibition, fluorescence-quenched peptide substrate MCA-EVNLDAEFK(DNP). The format is biochemical. The conditions noted are these: 50 mM acetate, pH 4.5, 0.25 mg/ml bovine serum albumin, 2.5% DMSO; read-out: Activity Rating (based on IC50 values). An excerpt: There are a number of methods by which inhibitors of the BACE enzyme can be identified experimentally. The enzyme can be obtained from membrane samples from natural tissues or cultured cells or can be expressed recombinantly in a host cell by well known methods of molecular biology. […] The enzymatic activity and/or ligand binding capability of the enzyme can be assessed within these membrane samples, or the enzyme can be purified to varying extents. As an illustrative example, the nucleic acid sequence encoding the pro and catalytic domains of human BACE can be appended on the 5′ end with an untranslated and signal sequence from the gene for acetylcholinesterase, and on the 3′ end with a sequence encoding a poly-histidine tag. This cDNA can then be expressed in Drosophila melanogaster S2 cells in which the signal and pro sequences of the transcribed/translated protein are removed by cellular proteases and the catalytic domain, appended by a C-terminal poly-histidine tag, is secreted out into the cellular medium. The enzyme can then be purified from the culture medium by nickel affinity chromatography by methods well known to those trained in the art [Mallender, W. et al., (2001) “Characterization of recombinant, soluble beta-secretase from an insect cell expression system.” Mol. Pharmacol. 59: 619-626]. Similar strategies for expressing and purifying various forms of BACE in bacterial, mammalian and other cell types would be known to one skilled in the art.
The enzyme thus obtained can be put in contact with a test compound and with an appropriate substrate on which enzyme-mediated peptide bond hydrolysis is known to occur. The ability of the test compound to diminish the rate of substrate hydrolysis can then be quantified as a measure of inhibition potency. Appropriate substrates can be prepared as peptides, proteins, or chemically modified versions of peptides or proteins, that contain an amino acid sequence that is recognized as a substrate by the enzyme. For example, the amino acid sequence immediately proximal to the beta-cleavage site within Swedish mutant APP is known to be recognized as a substrate for BACE. […] Longer peptide and protein substrates can also be designed by extending the amino acid composition on the N-terminal, the C-terminal, or both ends.
In one known application of (SEQ. ID. NO.:1), X is a 7-methoxycoumarin-4-acetyl (MCA) group and Y is a dinitrophenyl (DNP) group [Marcinkeviciene, J. et al., (2001) “Mechanism of inhibition of beta-site amyloid precursor protein-cleaving enzyme (BACE) by a statine-based peptide.” J. Biol. Chem. 276: 23790-23794]. When this peptide is intact, the natural fluorescence of the MCA group is quenched by its proximity to the DNP group. […] The increase in fluorescence intensity that accompanies enzyme-mediated peptide hydrolysis can be measured as a function of time to quantify the velocity of enzyme catalysis. In a typical assay system the BACE enzyme is diluted into a buffer system composed of 50 mM acetate, pH 4.5 containing 0.25 mg/ml bovine serum albumin. To this is added neat dimethyl sulfoxide (DMSO) or a stock solution of test compound dissolved in DMSO so that the final amount of DMSO in all assays is held constant at 2.5% (v:v). The enzymatic reaction is then initiated by addition of a stock solution of the substrate peptide to a known concentration. The fluorescence increase with time after substrate addition is monitored with an appropriate fluorescence detection instrument, such as a microplate reader or spectrofluorometer. The slope of the signal vs. time plot (progress curve) for samples to which only DMSO was added is taken as a measure of the uninhibited velocity and represents 100% enzymatic activity.

T1 sequence (P56817 75-416 limits assumed): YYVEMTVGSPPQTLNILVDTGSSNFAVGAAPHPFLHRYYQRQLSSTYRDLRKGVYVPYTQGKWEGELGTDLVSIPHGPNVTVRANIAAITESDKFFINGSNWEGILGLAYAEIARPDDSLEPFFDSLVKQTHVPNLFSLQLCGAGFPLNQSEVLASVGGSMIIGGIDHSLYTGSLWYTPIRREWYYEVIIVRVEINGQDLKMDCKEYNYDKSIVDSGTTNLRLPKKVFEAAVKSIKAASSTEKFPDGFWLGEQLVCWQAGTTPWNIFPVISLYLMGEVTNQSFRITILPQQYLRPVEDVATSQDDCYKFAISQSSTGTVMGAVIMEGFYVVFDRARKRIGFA

For orientation: IC50 means the midpoint of a concentration-inhibition curve. `CCC(C)[C@@]1(NS(=O)(=O)CC)CCN([C@@H](CCc2ccccc2)C(=O)N[C@@H](Cc2ccccc2)C(O)CNCc2cccc(OC)c2)C1=O` (stereo partly drawn) [Example 26, (2S)-2-(3(S)-(ethylsulfonamido)-3-((S)-sec-butyl)-2-oxo-pyrrolidin-1-yl)-N-[(1S)-1-benzyl-2-hydroxy-3-(3-methoxy-benzylamino)-propyl]-4-phenyl-butyramide]: the IC50 lay within 1000 to 50000 nM.
Take `CC[C@H](C)[C@@]1(NC(=O)[C@@H](N)CCC(=O)O)CCN([C@@H](CCc2ccccc2)C(=O)N[C@@H](Cc2ccccc2)[C@H](O)CNCc2cccc(OC)c2)C1=O` [Example 8]: the IC50 is less than 100 nM.
With `CC[C@H](C)[C@@]1(NC(C)=O)CCN([C@@H](CCc2ccccc2)C(=O)N[C@@H](Cc2ccccc2F)[C@H](O)CNCc2cccc(OC)c2)C1=O` [Example 11, (2S)-2-(3(S)-acetylamino-3-((S)-sec-butyl)-2-oxo-pyrrolidin-1-yl)-N-[(1S,2R)-1-(2-fluorobenzyl)-2-hydroxy-3-(3-methoxy-benzylamino)-propyl]-4-phenyl-butyramide], the IC50 lay in the range of 100 to 1000 nM.
Consider `CC(=O)NC1(CC(C)C)CCN([C@@H](CCc2ccccc2)C(=O)N[C@@H](Cc2ccccc2)[C@H](O)CNCC2CC2)C1=O` (stereo in doubt) [Example 32, (2S)-2-(3(S)-acetylamino-3-(isobutyl)-2-oxo-pyrrolidin-1-yl)-N-[(1S,2R)-1-benzyl-2-hydroxy-3-(cyclopropylmethyl)amino-propyl]-4-phenyl-butyramide], for which the IC50 lay within 100 to 1000 nM.
